Measurements published in the supplement of paper PMC11208160.

Assay: recombinant barcode read abundance after kanamycin selection (control-corrected) (log10(CPM+1)); higher = more efficient recombination; sequences stand for … in AGTGCAGAGAAAATCGGCCAGTTTTCTCTGCCTGCAGTCCGCATGCCGT…AGATTTATGCAGCGGACTGCCTTTCTCCCAAAGTGATAAACCGGACAGTATCATGGACCGGTTTTCCCGGTAATCCGTATTTGCAAGGTTGGTTTCACT; site = the 11-nt target
Procedure: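 Pooled E. coli target-specificity screen for the IS621 bridge recombinase. Each library plasmid pairs an 11-nt target (CT core) with a bridge RNA whose target-binding loop (9-nt LTG + 4-nt RTG) is reprogrammed; the rest of the 177-nt WT IS621 bridge RNA scaffold is fixed. The plasmid is co-electroporated with a WT donor plasmid; recombinase is induced with 0.1 mM IPTG and recombinants are selected on kanamycin. Recombinant barcodes are sequenced, converted to CPM, averaged over two biological replicates and corrected by the unselected control CPM. Molecule = full bridge RNA written as DNA: LTG = specificity nt 1-9, RTG = reverse complement of specificity nt 8-11, in the WT scaffold.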
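Note: IS621 recombinase and bridge RNA in Escherichia coli cells.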

Going from “AATGGGCCTTGGGTTCTAACCTGTTGCCT (site AATGGGTCTAG)” to “AATGGGGCTTGGGTTCTAACCTGTTGCTG (site AATGGGGCTCA)”, the “recombinant barcode read abundance (log10)” value rises from 0.201 to 1.15.

Going from “AATGGGGCTTGGGTTCTAACCTGTTGCTG (site TATGGAGCTCA)” to “AATGTACCTTGGGTTCTAACCTGTTGCCT (site AATGTACCTAG)”, the “recombinant barcode read abundance (log10)” value rises from 0.0813 to 1.89.

First: AATGTACCTTGGGTTCTAACCTGTTGCCT (site CATGTACCTAG)
Second: AATGTACCTTGGGTTCTAACCTGTTGCCT (site GATGTACCTAG)
The “recombinant barcode read abundance (log10)” value of the first is higher: 0.45 for the first, 0.0545 for the second.

Compared with “AATGTACCTTGGGTTCTAACCTGTTGCCT (site TATGTACCTAG)”, “AATGTGTCTTGGGTTCTAACCTGTTGCCT (site AAAGTGTCTAG)” is lower in “recombinant barcode read abundance (log10)” value: 1.27 for the first, 0.663 for the second.

Compared with “AATGTGTCTTGGGTTCTAACCTGTTGCCT (site AACGTGTCTAG)”, “AATGTGTCTTGGGTTCTAACCTGTTGCCT (site AAGGTGTCTAG)” is lower in “recombinant barcode read abundance (log10)” value: 1.47 for the first, 1.01 for the second.

Going from “AATGTGTCTTGGGTTCTAACCTGTTGCCT (site AATGTGTCTAG)” to “AATTAGACTTGGGTTCTAACCTGTTGCCT (site AATTAGACTAG)”, the “recombinant barcode read abundance (log10)” value falls from 2.59 to 1.12.

“AATTAGACTTGGGTTCTAACCTGTTGCCT (site CATTAGACTAG)” and “AATTAGACTTGGGTTCTAACCTGTTGCCT (site GATTAGACTAG)” are within 0.2 log units of each other in “recombinant barcode read abundance (log10)” value: 0.152 for the first, 0.226 for the second.

Going from “AATTAGACTTGGGTTCTAACCTGTTGCCT (site TATTAGACTAG)” to “AATTAGCCTTGGGTTCTAACCTGTTGCCT (site AATTAGCCTAG)”, the “recombinant barcode read abundance (log10)” value rises from 0.125 to 0.488.

“AATTAGCCTTGGGTTCTAACCTGTTGCCT (site GTGAGCACTTA)” and “AATTGGCCTTGGGTTCTAACCTGTTGCTT (site AATTGGCCTAA)” are within 0.2 log units of each other in “recombinant barcode read abundance (log10)” value: 0.185 for the first, 0.344 for the second.

“AATTGGCCTTGGGTTCTAACCTGTTGCTT (site GATAGGCCTAA)” and “AATTTAGCTTGGGTTCTAACCTGTTGCCT (site AATTAAGCTAG)” are within 0.2 log units of each other in “recombinant barcode read abundance (log10)” value: 0.37 for the first, 0.172 for the second.

“AATTTAGCTTGGGTTCTAACCTGTTGCCT (site AATTCAGCTAG)” and “AATTTAGCTTGGGTTCTAACCTGTTGCCT (site AATTGAGCTAG)” are within 0.2 log units of each other in “recombinant barcode read abundance (log10)” value: 0.169 for the first, 0.0396 for the second.

“AATTTAGCTTGGGTTCTAACCTGTTGCCT (site AATTTAGCTAG)” and “ACAAAACCTTGGGTTCTAACCTGTTGCCT (site ACAAAACCTAG)” are within 0.2 log units of each other in “recombinant barcode read abundance (log10)” value: 0.244 for the first, 0.171 for the second.

First: ACAAAACCTTGGGTTCTAACCTGTTGCCT (site ACAAACCCTAG)
Second: ACAAAACCTTGGGTTCTAACCTGTTGCCT (site ACAAAGCCTAG)
The “recombinant barcode read abundance (log10)” value of the first is higher: 0.461 for the first, 0.0848 for the second.

Compared with “ACAAAACCTTGGGTTCTAACCTGTTGCCT (site ACAAATCCTAG)”, “ACAAAAGCTTGGGTTCTAACCTGTTGCGG (site ACAAAAGCTCC)” is higher in “recombinant barcode read abundance (log10)” value: 0.0655 for the first, 1.59 for the second.

First: ACAAAAGCTTGGGTTCTAACCTGTTGCGG (site ACAAAGGCTCC)
Second: ACAAAGACTTGGGTTCTAACCTGTTGCCT (site ACAAAGACTAG)
The “recombinant barcode read abundance (log10)” value of the first is lower: 0.514 for the first, 0.847 for the second.

“ACAAAGACTTGGGTTCTAACCTGTTGCCT (site ACAAGGGCTAG)” and “ACAACCACTTGGGTTCTAACCTGTTGCCT (site ACAACCACTAG)” are within 0.2 log units of each other in “recombinant barcode read abundance (log10)” value: 0.0359 for the first, 0.235 for the second.

Going from “ACAACCACTTGGGTTCTAACCTGTTGCCT (site ACAACGACTAG)” to “ACAACCTCTTGGGTTCTAACCTGTTGCCG (site ACAACCTCTCG)”, the “recombinant barcode read abundance (log10)” value rises from 0.0258 to 1.23.

First: ACAACCTCTTGGGTTCTAACCTGTTGCCG (site TAGGGTACTGC)
Second: ACAAGCACTTGGGTTCTAACCTGTTGCCT (site ACAAGCACTAG)
The “recombinant barcode read abundance (log10)” value of the first is lower: 0 for the first, 1.46 for the second.

“ACAAGCACTTGGGTTCTAACCTGTTGCCT (site ACCATCACTAG)” and “ACAAGGGCTTGGGTTCTAACCTGTTGCCT (site ACAAAGACTAG)” are within 0.2 log units of each other in “recombinant barcode read abundance (log10)” value: 0.2 for the first, 0.261 for the second.

Compared with “ACAAGGGCTTGGGTTCTAACCTGTTGCCT (site ACAAGGGCTAG)”, “ACAAGTCCTTGGGTTCTAACCTGTTGCGG (site ACAAGTCCTCC)” is higher in “recombinant barcode read abundance (log10)” value: 0.547 for the first, 1.74 for the second.

Compared with “ACAAGTCCTTGGGTTCTAACCTGTTGCGG (site ATAAGTCCTTC)”, “ACAATGTCTTGGGTTCTAACCTGTTGCGG (site ACAATGTCTCC)” is higher in “recombinant barcode read abundance (log10)” value: 0.0466 for the first, 1.27 for the second.

“ACAATGTCTTGGGTTCTAACCTGTTGCGG (site ACACTGTCTCC)” and “ACAATGTCTTGGGTTCTAACCTGTTGCGG (site ACAGTGTCTCC)” are within 0.2 log units of each other in “recombinant barcode read abundance (log10)” value: 0.148 for the first, 0.192 for the second.

First: ACAATGTCTTGGGTTCTAACCTGTTGCGG (site ACATTGTCTCC)
Second: ACACACTCTTGGGTTCTAACCTGTTGCTG (site ACACACTCTCA)
The “recombinant barcode read abundance (log10)” value of the first is lower: 0.427 for the first, 1.97 for the second.

Compared with “ACACACTCTTGGGTTCTAACCTGTTGCTG (site ACACTCCCTCA)”, “ACACCACCTTGGGTTCTAACCTGTTGCCT (site AAACCACCTAG)” is higher in “recombinant barcode read abundance (log10)” value: 0.0463 for the first, 0.585 for the second.

“ACACCACCTTGGGTTCTAACCTGTTGCCT (site ACACCACCTAG)” and “ACACCACCTTGGGTTCTAACCTGTTGCCT (site AGACCACCTAG)” are within 0.2 log units of each other in “recombinant barcode read abundance (log10)” value: 0.0741 for the first, 0.179 for the second.

Going from “ACACCACCTTGGGTTCTAACCTGTTGCCT (site ATACCACCTAG)” to “ACACGCCCTTGGGTTCTAACCTGTTGCAC (site ACACGCCCTGT)”, the “recombinant barcode read abundance (log10)” value rises from 0.0171 to 0.333.

Going from “ACACGCCCTTGGGTTCTAACCTGTTGCAC (site AGACTCCCTGT)” to “ACACGGCCTTGGGTTCTAACCTGTTGCCG (site ACACGGCCTCG)”, the “recombinant barcode read abundance (log10)” value rises from 0.0104 to 0.428.

“ACACGGCCTTGGGTTCTAACCTGTTGCCG (site TAGTACGCTAA)” and “ACACTAACTTGGGTTCTAACCTGTTGCCT (site AAACTAACTAG)” are within 0.2 log units of each other in “recombinant barcode read abundance (log10)” value: 0.145 for the first, 0.071 for the second.

Compared with “ACACTAACTTGGGTTCTAACCTGTTGCCT (site ACACTAACTAG)”, “ACACTAACTTGGGTTCTAACCTGTTGCCT (site AGACTAACTAG)” is lower in “recombinant barcode read abundance (log10)” value: 0.404 for the first, 0.0933 for the second.

In the case of “ACACTAACTTGGGTTCTAACCTGTTGCCT (site ATACTAACTAG)”, the “recombinant barcode read abundance (log10)” value is reported as 0.
